Several values for one entry are separate records, joined by “and”; a condition that tells them apart may be missing. Equal entries are not always repeated. Where two headings read alike, the source gives them in different places.
How the values were obtained:
[1] = tested on: Giant foxtail (GIFT); test: whole plant or invertebrate; assay type: in vivo; conditions: for inhibition at 140 g/ha: Setaria faberi, iv, 312 h
[2] = tested on: wheat (WHEA); test: Multi-crop greenhouse test, soil-applied (Examples 65, 66; Tables 64, 65); assay type: in vivo; design: inhibition: dose or concentration left out as unconfirmed; conditions: Triticum aestivum; for inhibition at 18 g/ha: Herb. No. 1 0.018 Kg/Ha alone; for inhibition at 70 g/ha: Herb. No. 1 0.07 Kg/Ha alone; for inhibition at 280 g/ha: Herb. No. 1 0.28 Kg/Ha alone
Procedure, shortened: (§1)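 Dupo silt loam pans, seeds 1.3 cm deep; safener (acetone) + COUNTER 15G granules mixed into cover soil; subirrigated. MON-12000 run: herbicide POE day 6, light overhead irrigation days 4–7, injury scored 10 d later. XRD-498 run: all three components applied together to covers. Mean of 2 reps.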

[3] = tested on: soybean (SOBE); test: as above; assay type: in vivo; design: inhibition: dose or concentration left out as unconfirmed; conditions: Glycine max; for inhibition at 18 g/ha: Herb. No. 1 0.018 Kg/Ha alone; for inhibition at 70 g/ha: Herb. No. 1 0.07 Kg/Ha alone; for inhibition at 280 g/ha: Herb. No. 1 0.28 Kg/Ha alone
Procedure, shortened: as §1

[4] = tested on: Velvetleaf (VELE); assay type: in vivo, Abutilon theophrasti
[5] = tested on: Giant foxtail (GIFT); test: Greenhouse test Procedure VII (same examples); assay type: in vivo; conditions: Antidote + Biocide No. 1 in furrow
Description: This procedure describes interaction among herbicide, biocide and antidote when the biocide and the antidote is applied to a soil furrow containing crop seed before emergence of the crop and the herbicide is applied after emergence of the crop and weeds. The soil and planting depth was described in Procedure IV. The containers for comparison, the biocide and antidote applications to soil furrows were described in Procedure VI. In this procedure, the seed beds of the first, second, third and fourth containers are covered by soil layers not treated with herbicide. The containers were then placed on a bench in a greenhouse and subirrigated as required for the duration of the test. The herbicide, dispersed or dissolved in water containing 0.25% v/v nonionic surfactant (X-77) was applied by a track sprayer (187 L/ha) to the emerged plants of the second, third and fourth containers about five days after planting. All treatments were run in duplicate. Plant response was observed according to Procedure IV. Variations in this procedure will be noted in the examples.
In these tests (according to Procedure VII) the safeners in solution with acetone were applied in furrow to the soil, followed by COUNTER 15G granules at 227 g/305 m (8 oz./1000'). Applications were made in alternate rows in two separate 13.7 cm x 27.7 cm pans containing Dupo silt loam. Pans were seeded 1.3 cm deep, placed on benches in a greenhouse and subirrigated. BEACON was formulated in water with 0.25% v/v X-77 surfactant and applied by track sprayer at a rate of 187 L/Ha (20 gal/A). Weed species in this test were giant foxtail, shattercane and velvetleaf. The herbicide was applied five (5) days after PPI initiation and observation of test result (shown in Table 47) made eight (8) days later.
In Table 47 COUNTER 15G is abbreviated as "C" and the antidotes as "A" in the column headings which indicate the "C + A" ratios used in the tests. Control and COUNTER treatments are average of four (4) replications and COUNTER + Antidote treatments, average of 2 reps.

[6] = Table 64, Herb. No. 1 0.018 Kg/Ha + Biocide No. 1 8.96 Kg/Ha
[7] = Table 64, Herb. No. 1 0.07 Kg/Ha + Biocide No. 1 8.96 Kg/Ha
[8] = Table 64, Herb. No. 1 0.28 Kg/Ha + Biocide No. 1 8.96 Kg/Ha
[9] = Table 65, Herb. No. 1 0.018 Kg/Ha + Biocide No. 1 8.96 Kg/Ha
[10] = Table 65, Herb. No. 1 0.07 Kg/Ha + Biocide No. 1 8.96 Kg/Ha
[11] = Table 65, Herb. No. 1 0.28 Kg/Ha + Biocide No. 1 8.96 Kg/Ha

COC(=O)c1c(Cl)nn(C)c1S(=O)(=O)NC(=O)Nc1nc(OC)cc(OC)n1 [Herbicide No. 1, N-[(4,6-dimethoxypyrimidin-2-yl)aminocarbonyl]-3-chloro-4-methoxycarbonyl-5-sulfonamide, reference compound]
% Inhibition GIFT ([1]; Herbicide No. 1 0.0175 Kg/Ha PPI alone, Table 19): 15%
% Inhibition GIFT ([1]; Herbicide No. 1 0.0175 Kg/Ha PPI alone, Table 20): 0%
% Inhibition GIFT ([1]; Herbicide No. 1 0.0175 Kg/Ha PPI alone, Table 21): 0%
% Inhibition GIFT ([1]; Herbicide No. 1 0.0175 Kg/Ha PPI alone, Table 22): 0%
inhibition at 140 g/ha ([1]; Herb. No. 1 0.14 kg/Ha alone, PPI, 13 days after planting): 30%
inhibition at 140 g/ha ([1]; Table 51, Herbicide No. 1 0.14 Kg/Ha, where applied Biocide No. 8 8.96 kg/Ha and antidote 4.48 Kg/Ha, all PPI, observed 13 days after treatment): 60%
% Inhibition GIFT ([1]; in vivo): 60% and 65% and 80%
inhibition [2, 6]: 0%
inhibition at 18 g/ha ([2]; Table 64): 0%
inhibition [2, 7]: 0%
inhibition at 70 g/ha ([2]; Table 64): 0%
inhibition [2, 8]: 35%
inhibition at 280 g/ha ([2]; Table 64): 0%
inhibition [2, 9]: 0%
inhibition at 18 g/ha ([2]; Table 65): 0%
inhibition [2, 10]: 0%
inhibition at 70 g/ha ([2]; Table 65): 0%
inhibition [2, 11]: 85%
inhibition at 280 g/ha ([2]; Table 65): 0%
inhibition [3, 6]: 5%
inhibition at 18 g/ha ([3]; Table 64): 15%
inhibition [3, 7]: 70%
inhibition at 70 g/ha ([3]; Table 64): 45%
inhibition [3, 8]: 75%
inhibition at 280 g/ha ([3]; Table 64): 70%
inhibition [3, 9]: 0%
inhibition at 18 g/ha ([3]; Table 65): 0%
inhibition [3, 10]: 0%
inhibition at 70 g/ha ([3]; Table 65): 0%
inhibition [3, 11]: 15%
inhibition at 280 g/ha ([3]; Table 65): 20%

N#CCOc1ccc(Cl)c2cccnc12 [compound 33]
% Inhibition 5 DAP VELE ([4]; Antidote 4.48 + Biocide No. 1 8.96 Kg/Ha PPI, Herb. No. 8 0.07, 5 DAP, before herbicide application): 50%
% Inhibition 13 DAP VELE ([4]; Antidote 4.48 + Biocide No. 1 8.96 Kg/Ha PPI, Herb. No. 8 0.07 POE, 13 DAP): 95%
% Inhibition VELE ([4]; Antidote 4.48 + Biocide No. 1 8.96 Kg/Ha PPI, Herbicide No. 7 0.28 POE, 13 days after planting): 70%
% Inhibition 5 DAP VELE ([4]; Herb. […], 5 DAP, before herbicide application): 30%
% Inhibition VELE ([4]; Table 14: Herbicide No. 7 (ACCENT) 0.84 Kg/Ha POE + Biocide No. 2 8.96 Kg/Ha PPI + antidote 4.48 Kg/Ha PPI, 13 days after planting, 8 days after herbicide): 75%
% Inhibition VELE ([4]; […], 13 days after planting, 8 days after herbicide): 70%
% Inhibition VELE ([4]; […], observed 10 days after herbicide application): 85%
% Inhibition 5 DAP VELE ([4]; in vivo): 60%
% Inhibition 13 DAP VELE ([4]; in vivo): 90%
% Inhibition GIFT ([5]; Herbicide No. 1 0.14 Kg/Ha POE, 8 days after POE): 0%
% Inhibition GIFT ([5]; Herbicide No. 4 0.17 Kg/Ha POE, 8 days after POE): 0%
% Inhibition GIFT ([5]; Herbicide No. 5 0.07 Kg/Ha POE, 8 days after POE): 0%
% Inhibition GIFT ([5]; Herbicide No. 6 0.01 Kg/Ha POE): 65%
% Inhibition GIFT ([5]; Herbicide No. 7 0.56 Kg/Ha POE, 8 days after POE): 80%
% Inhibition GIFT ([5]; Herbicide No. 9 0.009 Kg/Ha POE): 25%
% Inhibition GIFT ([5]; Herbicide No. 10 0.002 Kg/Ha POE, 8 days after POE): 0%
% Inhibition GIFT ([5]; Herbicide No. 15 0.0044 Kg/Ha POE, 8 days after POE): 0%
% Inhibition GIFT ([5]; Herbicide No. 16 0.01 Kg/Ha POE): 30%
% Inhibition GIFT ([5]; Herbicide No. 18 0.0044 Kg/Ha POE): 65%
% Inhibition GIFT ([5]; Herbicide No. 19 0.28 Kg/Ha POE): 35%
% Inhibition GIFT ([5]; Herbicide No. 21 0.14 Kg/Ha POE): 30%
% Inhibition GIFT ([5]; Herbicide No. 23 0.0006 Kg/Ha POE): 25%

From patent publication EP0565593B1, “REDUCING PESTICIDAL INTERACTIONS IN CROPS” (priority 1990, dated 1992)
